Source: PMC6918900, “Concentration-Dependent Activity of Hydromethylthionine on Cognitive Decline and Brain Atrophy in Mild to Moderate Alzheimer’s Disease” (Journal of Alzheimer's Disease, 2019)
“And” between values parts separate entries of the source, which are not always exact repeats. Identical values can stand only once. Like-named read-outs stand apart in the source and are kept apart here.

How the values were obtained:
[1] = earlier Phase II study; cited from earlier work
[2] = elderly humans; cited from earlier work
[3] = mice; cited from earlier work
[4] = Estimated steady state brain concentration of LMT; design: species or system human; settings: corresponding to 0.3–0.8 ng/ml in plasma
[5] = system: tau transgenic mouse models; settings: dose of 9 mg/kg/day; cited from earlier work
[6] = system: autophagy; design: method as in PMID 26572258, PMID 22361619; settings: cited from earlier work
[7] = system: electron transfer chain; design: method as in PMID 17928358, PMID 22419586; settings: supplementary electron carrier in the electron transfer chain; cited from earlier work
[8] = system: tangle filaments isolated from AD brain tissues; design: method as in PMID 25759392, PMID 8855335; settings: at a similar molar ratio (tau:LMT 1 : 0.1); cited from earlier work

CN(C)c1ccc2nc3ccc(=[N+](C)C)cc-3sc2c1 [MTC, methylthioninium chloride]
minimum effective dose [1]: 138 mg/day

CN(C)c1ccc2c(c1)Sc1cc(N(C)C)ccc1N2 [LMT, leuco-methylthioninium]
half-life [2]: 37 h | half-life [3]: 4 h | estimated steady state concentration in the brain [4]: 6–16 ng/ml and 0.021–0.056 μM | effect on tau aggregation pathology and behavioral deficits [5]: reduces tau aggregation pathology and associated behavioral deficits

CN(C)c1ccc2nc3ccc(=[N+](C)C)cc-3sc2c1 [MT moiety, methylthioninium]
concentration range enhancing autophagy [6]: 10 to 20 nM | concentrations enhancing mitochondrial activity [7]: 10 to 100 nM | effect on proteolytic stability of tangle filaments [8]: reverse the proteolytic stability of tangle filaments
